# Measured values: US12168668B2, “Compounds for the treatment of cancer and inflammatory disease” (SHY Therapeutics LLC, priority 2015, dated 2024)
# Tests used:
# IL-6 = assay: Mouse IL6 quantification assay (LPS-stimulated RAW 264.7, ELISA); assay type: cell-based; details: RAW264.7, RAW 264.7 macrophage cell line, LPS stimulation 16 h
# Protocol: (§1) Protocol for Mouse TNF Alpha and IL6 Quantification Assay
# (§2) Cell lines: Abelson murine leukemia virus transformed macrophage cell line RAW 264.7 was purchased from ATCC and grown in complete DMEM-High Glucose medium supplemented with penicillin (100 U/mL), streptomycin (100 μg/mL), and 10% heat-inactivated FBS at 37° C. in a humidified incubator with 5% CO2.
# (§3) Method: Cells were plated at 40000 cells/well density in a 96-wells plate. After a 3-hour incubation, macrophages were starved with DMEM plus 0.5% FBS o/n. The next day the small molecules to be tested were added to the cells in the final concentration of 30 μM (with 0.3% DMSO) 3 hours prior to LPS stimulation (100 ng/ml). After LPS stimulation cells were incubated at 37° C. for 16 h. At the end of the incubation period, culture media were collected and production of LPS-induced TNFα and IL6 cytokine was measured using ELISA detection kits.
# (§4) Sandwich ELISA: The ELISA Immunoassays Quantikine Mouse TNF-alpha (catalog number MTA00B) and IL6 (catalog number M6000B) were purchased from R&D Systems Inc., Minneapolis, MN These 4.5 hours solid phase ELISAs were used to measure mouse TNFα or IL6 levels in macrophages culture supernatants. Assays were executed according to the manufacturer specifications.
# TNFα = assay: Mouse TNF alpha quantification assay (LPS-stimulated RAW 264.7, ELISA); assay type: cell-based; details: RAW264.7, RAW 264.7 macrophage cell line, LPS stimulation 16 h
# Protocol: as §1, §2, §3, §4
SMILES,inhibition at 30 µM (IL-6),inhibition at 30 µM (TNFα)
Oc1ccc(C2(c3ccccc3)CCCC2)cc1,76 to 100%,76 to 100%
Oc1nc(-c2ccccn2)nc2c(-c3ccccc3)csc12,–,76 to 100%
Oc1nc(-c2ccccn2)nc2c(-c3ccccc3Cl)csc12,–,51 to 75%
